Measurements reported in publication PMC11737796 (PLOS ONE, 2025).
Values joined by “and” are separate entries in the source; they are usually repeats but may differ in a detail not shown here. Equal entries are not always repeated. Where two headings read alike, the source gives them in different places. Values belong to the compound of their own block, whether it stands above or below them.

Tests used:
[1] = target: T1, recombinant human RORγt LBD (Homo sapiens, UniProt P51449); test: Human RORγt radioligand competition binding assay
T1 sequence (P51449 258-518): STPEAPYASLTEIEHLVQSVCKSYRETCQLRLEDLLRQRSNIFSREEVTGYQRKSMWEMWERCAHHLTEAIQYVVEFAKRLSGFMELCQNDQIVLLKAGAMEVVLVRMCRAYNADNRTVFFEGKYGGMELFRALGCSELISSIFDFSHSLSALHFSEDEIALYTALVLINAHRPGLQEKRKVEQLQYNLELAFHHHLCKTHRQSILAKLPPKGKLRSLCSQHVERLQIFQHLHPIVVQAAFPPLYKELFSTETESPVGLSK
Experimental: The assay was run in white polystyrene flat-bottom 384-well plates (Greiner, cat. No. 781075). Assays were carried out in 40 μl reaction volumes. A concentration range of test ligands in 0.4 μl of DMSO were added to assay plates using an acoustic liquid dispenser. […] Test plates were incubated for 16 hours and read using a LEADseeker (GE Healthcare, USA) Multimodality imaging instrument.
(§1) The raw data from the radio-ligand and co-factor recruitment assays were transformed to % effect using the equation:
(§2) Compound % effect = 100*[(X-min)/(max-min)]
(§3) where X represents the effect in the presence of test compound and max and min are the effects in presence of the maximum and minimum controls respectively.
(§4) The data was plotted to generate concentration response profiles and the concentration-response curves were fitted to the data using the non-linear regression analysis; 4 parameter logistic smart fit method in the Analyser application of the Genedata® Screener software (Genedata, Inc., Basel, Switzerland). […] Ki was calculated from the IC50 value using the equation Ki = IC50/1+[L]/Kd)

[2] = target: T2, recombinant murine RORγt LBD (Mus musculus, UniProt P51450); test: Murine RORγt radioligand competition binding assay; conditions: for Mouse ligand binding Response (%): raw points of replicate experiments
T2 construct: 10nM purified HN-AVI-GST-TCS-mRORγ(aa256-516) was mixed with
T2 sequence (P51450 256-516): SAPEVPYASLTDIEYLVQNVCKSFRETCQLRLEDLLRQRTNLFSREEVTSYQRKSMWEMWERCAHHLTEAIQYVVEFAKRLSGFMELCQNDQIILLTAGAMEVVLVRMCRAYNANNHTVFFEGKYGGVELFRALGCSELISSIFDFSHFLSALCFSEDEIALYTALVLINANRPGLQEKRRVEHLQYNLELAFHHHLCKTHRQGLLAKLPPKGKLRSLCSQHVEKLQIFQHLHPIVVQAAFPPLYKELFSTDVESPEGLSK
Experimental: The assay was run in white/clear polystyrene flat-bottom 384-well plates (Greiner, cat. No. 781095). Assays were carried out in 40 μl reaction volumes. 0.125 μl of a fixed concentration range of test ligands dissolved in DMSO were added to assay plates using an acoustic liquid dispenser.
as §1, §2, §3, §4

[3] = tested on: thymic lymphomas; conditions: rats; cited from earlier work
[4] = tested on: thymic lymphomas; conditions: mice; cited from earlier work
[5] = target: T3, human RORα LBD (Homo sapiens, UniProt P35398); test: RORα co-factor recruitment assay; type: biochemical; conditions: raw points; for RORa agonism Response (%): agonism mode; for RORa inverse agonism Response (%): inverse agonism mode
T3 construct: 180 nM Protein (His6-tcs-hRORαLBD)
T3 sequence (P35398 272-510 limits assumed): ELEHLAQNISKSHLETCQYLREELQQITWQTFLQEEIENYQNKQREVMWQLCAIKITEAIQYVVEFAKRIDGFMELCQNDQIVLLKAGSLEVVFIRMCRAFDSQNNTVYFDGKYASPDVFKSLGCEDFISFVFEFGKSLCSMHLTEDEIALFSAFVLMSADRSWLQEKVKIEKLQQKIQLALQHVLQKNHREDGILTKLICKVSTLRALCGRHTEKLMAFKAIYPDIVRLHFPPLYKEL
Experimental: The assay was run in black 384 well plates (Greiner: 784900). A 0.2 μl volume of a fixed concentration range of test ligands dissolved in DMSO were added to assay plates using an acoustic liquid dispenser. Two pre-mixes were prepared in falcon tubes. Pre-mix 1 comprised 180 nM Protein (His6-tcs-hRORαLBD) and 8 nM Lance Eu-W1024-anti 6xHis in assay buffer, 50 mM Hepes pH7.4, 100 mM NaCl, 0.1% (w/v) BSA, 1 mM TCEP which was incubated for 30 minutes at room temperature before dispensing 10 μl to assay plates. Then, pre-mix 2 comprising 200 nM biotinylated PGC1alpha peptide and 50 nM streptavidin APC in assay buffer, was prepared and incubated for 30 minutes at room temperature before adding 10 μl to assay plates containing test compound and premix 1. Plates were incubated at room temperature for 1 hour in the dark, prior to reading in a Pherastar multi-mode plate reader (BMG LABTECH) using HTRF filter set (ex 320 nm, em 612 and 665 nm). The FRET signal at 665 nm was divided by the signal at 612 nm and multiplied by 10,000 to generate a signal ratio value for each well.
as §1, §2, §3, §4

[6] = tested on: thymocyte numbers; conditions: bi-daily administration of 10 mg/kg, after two days; cited from earlier work
[7] = tested on: IL-17A production in primary human Th17 cells; test: Primary human Th17 cell assay (IL-17A release); type: cell-based
Experimental: Peripheral blood mononuclear cells were isolated from heparin treated human whole blood from healthy donors by density gradient centrifugation. […] On day 4, supernatants were collected and IL-17A was measured using a Human IL-17A HTRF Assay kit (Cisbio/PerkinElmer, MA, USA) according to the manufacturer’s protocol.
Genedata Screener® software (Genedata, Inc., Basel, Switzerland) was used for data normalization, curve fitting and calculation of IC50 for IL-17A inhibition as well as for cell viability. Raw data from the Human IL-17A HTRF Assay and CellTiter-Glo® Luminescent Cell Viability assay was transformed to % effect according to the formula:
Compound % effect = 100*[(X-min)/(max-min)],
where X represents the effect in the presence of test compound. […] For the cell viability calculations, 2-(2,2-dicyclohexylethyl)piperidine at 10 μM was used as maximal toxicity control while DMSO was used as minimal toxicity control. A four-parameter logistic smart fit method in the Analyser application of the Genedata® Screener software was used for curve fitting of the % effect data and IC50 calculation.

[8] = tested on: IMQ model; conditions: cited from earlier work
[9] = tested on: mouse thymocytes; test: Mouse thymocyte apoptosis assay ex vivo; type: cell-based; conditions: 26 hours, AnnexinV and 7AAD staining
Experimental: The thymus from a female C57BL/6NCrl (Charles River) mouse aged around 7 weeks was dissected out after giving the mouse a lethal i.p. injection of penthobarbital. Single cell suspension of thymocytes was prepared by disrupting the thymus through a 70 μm cell strainer with the top of a sterile 5 ml syringe plunger in DPBS (without Ca/Mg). Cells were filtered through a 40 μm cell strainer and washed in serum-free media before being resuspended in complete media (RPMI1640 with L-glutamine supplemented with 10% heat inactivated foetal bovine serum (FBS) (Gibco/Invitrogen) and 50 μM 2-mercaptoethanol (Gibco/Invitrogen).
Cells were seeded at 500 000 cells/well in 96-well plates (U-bottom, cat #3799, Corning, MA, USA) in the presence of compounds or DMSO and cultured for 26 hours (37°C, 5% CO2). The thymocytes were then washed twice in cold DPBS (without Ca/Mg) and stained with APC AnnexinV (#550475, BD Pharmingen, BD Biosciences, CA, USA) and 7AAD (#559925, BD Pharmingen) in AnnexinV Binding buffer (#556454, BD Pharmingen) for 15 minutes at RT (dark) in order to separate live cells from dead, early apoptotic and late apoptotic cells when analysed on the BD Accuri C6 (BD Biosciences, CA, USA).
The compound effect on the percentage of surviving cells relative to the DMSO control were calculated using the following formula; […]

[10] = Mouse plasma protein binding; type: in vitro ADME
Text: Table 1 Overview of compound potencies in multiple assays. | column: 1; 2; 3; 4; 5; 6

[11] = tritiated ligand, used for Ki calculation

IC50 ([1]; the ligand that is used tritiated as radioligand, n = 6): 47.9 nM
Kd [1, 11]: 17 nM
IC50 ([2]; the ligand that is used tritiated as radioligand, n = 3): 123 nM
Kd [2, 11]: 45 nM
SMILES: CCS(=O)(=O)c1ccc(CC(=O)Nc2cc(-c3ccccc3COC)cs2)cc1 [2-(4-(ethylsulfonyl)phenyl)-N-(4-(2-(methoxymethyl)phenyl)thiophen-2-yl)acetamide, reference compound]

SMILES: C[C@H]1C[C@H](C(=O)O)CC[C@H]1C(=O)N1CC[C@@]2(S(=O)(=O)c3ccc(F)cc3)c3ccc(C(F)(C(F)(F)F)C(F)(F)F)cc3CC[C@@H]12 [BMS-986251]
thymic lymphomas [3]: thymic lymphomas
thymic lymphomas [4]: thymic lymphomas

RORa agonism Response (%) ([5]; -LOG10(Concentration) 4.5): 151.862%
RORa agonism Response (%) ([5]; -LOG10(Concentration) 5): 149.498%
RORa agonism Response (%) ([5]; -LOG10(Concentration) 5.5): 136.244%
RORa agonism Response (%) ([5]; -LOG10(Concentration) 6): 110.728%
RORa agonism Response (%) ([5]; -LOG10(Concentration) 6.5): 68.027%
RORa agonism Response (%) ([5]; -LOG10(Concentration) 7): 28.348%
RORa agonism Response (%) ([5]; -LOG10(Concentration) 7.5): 7.215%
RORa agonism Response (%) ([5]; -LOG10(Concentration) 8): 11.627%
RORa agonism Response (%) ([5]; -LOG10(Concentration) 8.5): 1.827%
RORa agonism Response (%) ([5]; -LOG10(Concentration) 9): 1.839%
RORa inverse agonism Response (%) ([5]; -LOG10(Concentration) 4.5): 135.32%
RORa inverse agonism Response (%) ([5]; -LOG10(Concentration) 5): 141.906%
RORa inverse agonism Response (%) ([5]; -LOG10(Concentration) 5.5): 137.911%
RORa inverse agonism Response (%) ([5]; -LOG10(Concentration) 6): 125.139%
RORa inverse agonism Response (%) ([5]; -LOG10(Concentration) 6.5): 92.31%
RORa inverse agonism Response (%) ([5]; -LOG10(Concentration) 7): 46.105%
RORa inverse agonism Response (%) ([5]; -LOG10(Concentration) 7.5): 12.144%
RORa inverse agonism Response (%) ([5]; -LOG10(Concentration) 8): 1.673%
RORa inverse agonism Response (%) ([5]; -LOG10(Concentration) 8.5): -4.289%
RORa inverse agonism Response (%) ([5]; -LOG10(Concentration) 9): -3.197%
Mouse ligand binding Response (%) ([2]; -LOG10(Concentration) 5): -100.443% and -98.9%
Mouse ligand binding Response (%) ([2]; -LOG10(Concentration) 5.5): -97.044% and -97.709% and -95.886%
Mouse ligand binding Response (%) ([2]; -LOG10(Concentration) 6): -90.54% and -92.979% and -82.118%
Mouse ligand binding Response (%) ([2]; -LOG10(Concentration) 6.5): -75.979% and -75.927%
Mouse ligand binding Response (%) ([2]; -LOG10(Concentration) 7): -66.593% and -61.493% and -41.548%
Mouse ligand binding Response (%) ([2]; -LOG10(Concentration) 7.5): -41.39% and -32.816% and -24.196%
Mouse ligand binding Response (%) ([2]; -LOG10(Concentration) 8): -17.738% and -1.711% and -32.373%
Mouse ligand binding Response (%) ([2]; -LOG10(Concentration) 8.5): -14.117% and 14.175%
Mouse ligand binding Response (%) ([2]; -LOG10(Concentration) 9): -4.804% and 10.02% and -17.221%
Mouse ligand binding Response (%) ([2]; -LOG10(Concentration) 9.5): -4.804% and 5.051% and -11.899%
Mouse PPB (% unbound) [10]: 18.6 (1) %
SMILES: CC(=O)N1Cc2cc(S(C)(=O)=O)ccc2[C@@H]1C(=O)Nc1ccc(C(O)(C(F)(F)F)C(F)(F)F)cc1 [Compound 5]
effect on thymocyte numbers [6]: did not have a significant effect
Human Th17 Response (%) ([7]; -LOG10(Concentration) 6.5, single points per experiment): -83.16% and -87.655% and -78.367% and -82.722%
Human IL-17A in Th17 cells ([7]; IL-17A in supernatants after 4 days): 7.8 ± 0.2 (45)
ear thickness ([8]; IMQ model): significantly but partially reduced
effect in the IMQ model ([8]; repeated daily dosing of 15 mg/kg): a larger effect
Thymocyte apoptosis [9]: 6.6 ± 0.1 (4)
